From patent US20080096967A1, “Formulations for Injection of Catecholic Butanes, Including Ndga Compounds, Into Animals” (priority 2005, published 2008)

Experiment: Solubility and room temperature stability of M4N in modified cyclodextrin / PEG formulations (visual inspection)
Format: physicochemical
Protocol: A 100 mL solution of 40% HP-β-CD for use as a solubilizing agent and/or excipient was made as follows: 65 mL of WFI were placed in a glass beaker containing a stir bar. The beaker was placed on a magnetic plate, and the stir bar was set to stir at medium speed. About forty (40) grams of HP-β-CD were added slowly to the stirring WFI, using a spatula to direct the HP-β-CD to the center of the beaker so as to prevent HP-β-CD crystals from sticking to the beaker wall. The HP-β-CD solution was stirred for about 24 hr or until the HP-β-CD was dissolved completely upon visual inspection. The resulting solution measured about 93 mL. About 7 mL of WFI was added to this resulting solution to obtain 100 mL, producing a final solution of about 40% HP-β-CD. The final solution was stirred for about 1 hr, stored at room temperature, and was protected from light. This method of making the modified cyclodextrin solution may be scaled up or down to obtain the desired volume or concentration. Other concentrations or other modified cyclodextrin solutions may be similarly made, for example, by substituting HP-β-CD with other modified cyclodextrins, adjusted for the appropriate concentrations in the process described above.
A 10 mL solution of M4N at a concentration of about 10 mg/mL in 40% HP-β-CD was made as follows. About 10 mL of the 40% HP-β-CD solution were added to a glass beaker containing a stir bar. The beaker was placed on a magnetic plate and the stir bar was set to stir at medium speed. About […] of M4N were slowly added to the 40% HP-β-CD in the center of the beaker with the aid of a spatula. The M4N/40% HP-β-CD mixture was stirred for 2 hr or until all M4N was uniformly suspended without any clumps being present. The M4N/40% HP-β-CD mixture was optionally heated at 80° C. for about 30 min. (or longer if a larger volume of solution was desired, for example, 1 hr at 80° C. for 100 mL of the M4N/HP-β-CD mixture), or longer as needed to ensure complete dissolution of M4N. […] The final M4N/40% HP-β-CD solution was stored at room temperature and was kept protected from light. This process may be scaled up or down to obtain the requisite volume or concentration of M4N. Formulations containing M4N in other cyclodextrin solutions may be similarly made, such as, for example, by substituting HP-β-CD in the process described above with other cyclodextrins.
A 100 mL solution of M4N at a concentration of about 25 mg/mL in PEG 300 was made as follows. About 100 mL of PEG 300 were added to a glass beaker containing a stir bar. The beaker was placed on a magnetic plate and the stir bar was set to stir at medium speed. About 2.5 g of M4N were slowly added to the PEG 300 in the center of the beaker with the aid of a spatula to prevent M4N from sticking to the beaker wall. The M4N/PEG 300 mixture was stirred for 24 hr or until all M4N had dissolved or was uniformly suspended without any clumps being present. The M4N/PEG 300 mixture was optionally heated at about 60° C. for about 30 min. (or longer if a larger volume of solution was desired, for example, 1 hr at 60° C. for 500 mL of the M4N/PEG 300 mixture), or longer as needed to ensure complete dissolution of M4N. […] If crystals formed, the M4N/PEG 300 solution could be heated again at 60° C. for about 1 hr, with stirring, on a hot magnetic plate until all M4N was dissolved back in solution. The final M4N/PEG 300 solution was stored at room temperature and was kept protected from light. This process may be scaled up or down to obtain the requisite volume or concentration of M4N. Formulations containing M4N in other PEGs may be similarly made, such as, for example, by substituting PEG 300 in the process described above with PEG 400 or PEG 400 monolaurate. […]

COc1ccc(C[C@@H](C)[C@@H](C)Cc2ccc(OC)c(OC)c2)cc1OC [Formulation M4N, meso-1,4-bis(3,4-dimethoxyphenyl)-2,3-dimethylbutane]
<7 days: Stability at Room Temperature (5% HP-β-CD, 12.5% PEG 300 (v/v), M4N 3.13 mg/mL) | Stability at Room Temperature (15% HP-β-CD, 50% PEG 300 (v/v), M4N 12.5 mg/mL)
<3 days: Stability at Room Temperature (30% HP-β-CD, M4N 10 mg/mL) | Stability at Room Temperature (50% HP-β-CD, 1.25% PVP (w/v), M4N 1 mg/mL)
Y at 80°: Dissolution After Heating at X ° C. (40% HP-β-CD, M4N 1 mg/mL, 80°) | Dissolution After Heating at X ° C. (40% HP-β-CD, M4N 10 mg/mL, 80°)
<1 days: Stability at Room Temperature (12.5% HP-β-CD, 50% PEG 300 (v/v), M4N 12.5 mg/mL)
N at 90°: Dissolution After Heating at X ° C. (1.50% β-CD, M4N 1 mg/mL, 90°) | Dissolution After Heating at X ° C. (1.50% β-CD, M4N 10 mg/mL, 90°) | Dissolution After Heating at X ° C. (5% γ-CD, M4N 1 mg/mL, 90°) | Dissolution After Heating at X ° C. (15% α-CD, M4N 10 mg/mL, 90°) | Dissolution After Heating at X ° C. (15% α-CD, M4N 50 mg/mL, 90°) | Dissolution After Heating at X ° C. (15% α-CD, M4N 100 mg/mL, 90°) | Dissolution After Heating at X ° C. (20% HP-β-CD, M4N 10 mg/mL, 90°) | Dissolution After Heating at X ° C. (30% HP-β-CD, M4N 20 mg/mL, 90°) | Dissolution After Heating at X ° C. (30% HP-β-CD, M4N 50 mg/mL, 90°) | Dissolution After Heating at X ° C. (30% HP-β-CD, M4N 100 mg/mL, 90°) | Dissolution After Heating at X ° C. (50% HP-β-CD, M4N 20 mg/mL, 90°) | Dissolution After Heating at X ° C. (50% HP-β-CD, M4N 50 mg/mL, 90°) | Dissolution After Heating at X ° C. (50% HP-β-CD, M4N 100 mg/mL, 90°)
>7 days: Stability at Room Temperature (6.7% HP-β-CD, 16.7% PEG 300 (v/v), M4N 4.17 mg/mL) | Stability at Room Temperature (10% HP-β-CD, 25% PEG 300 (v/v), M4N 6.25 mg/mL) | Stability at Room Temperature (20% HP-β-CD, 50% PEG 300 (v/v), M4N 12.5 mg/mL) | Stability at Room Temperature (20% HP-β-CD, M4N 1 mg/mL) | Stability at Room Temperature (23% HP-β-CD, 43 PEG 300 (v/v), M4N 12.9 mg/mL) | Stability at Room Temperature (27% HP-β-CD, 33% PEG 300 (v/v), M4N 13.3 mg/mL) | Stability at Room Temperature (27% HP-β-CD, 33% PEG 400 (v/v), M4N 13.3 mg/mL) | Stability at Room Temperature (30% HP-β-CD, 25% PEG 400 (v/v), M4N 12.5 mg/mL) | Stability at Room Temperature (30% HP-β-CD, M4N 1 mg/mL) | Stability at Room Temperature (32% HP-β-CD, 20% PEG 400 (v/v), M4N 10 mg/mL) | Stability at Room Temperature (40% HP-β-CD, M4N 1 mg/mL) | Stability at Room Temperature (40% HP-β-CD, M4N 10 mg/mL) | Stability at Room Temperature (50% HP-β-CD in saline, M4N 10 mg/mL) | Stability at Room Temperature (50% HP-β-CD, M4N 1 mg/mL) | Stability at Room Temperature (50% HP-β-CD, M4N 10 mg/mL)
N: Dissolution After Heating at X ° C. (40% HP-β-CD, 1% PVP (w/v), M4N 1 mg/mL) | Dissolution After Heating at X ° C. (40% HP-β-CD, 1% PVP (w/v), M4N 10 mg/mL) | Dissolution After Heating at X ° C. (50% HP-β-CD, 1.25% PVP (w/v), M4N 10 mg/mL) | Dissolution After Heating at X ° C. (50% HP-β-CD, 1.25% PVP (w/v), M4N 50 mg/mL)
N at 80°: Dissolution After Heating at X ° C. (40% HP-β-CD, 2.5% PG (v/v), M4N 1 mg/mL, 80°) | Dissolution After Heating at X ° C. (40% HP-β-CD, 2.5% PG (v/v), M4N 10 mg/mL, 80°) | Dissolution After Heating at X ° C. (40% HP-β-CD, M4N 12 mg/mL, 80°) | Dissolution After Heating at X ° C. (40% HP-β-CD, M4N 14 mg/mL, 80°) | Dissolution After Heating at X ° C. (40% HP-β-CD, M4N 16 mg/mL, 80°) | Dissolution After Heating at X ° C. (40% HP-β-CD, M4N 20 mg/mL, 80°) | Dissolution After Heating at X ° C. (40% HP-β-CD, M4N 50 mg/mL, 80°) | Dissolution After Heating at X ° C. (40% HP-β-CD, M4N 100 mg/mL, 80°)
Y at 90°: Dissolution After Heating at X ° C. (20% HP-β-CD, M4N 1 mg/mL, 90°) | Dissolution After Heating at X ° C. (30% HP-β-CD, M4N 1 mg/mL, 90°) | Dissolution After Heating at X ° C. (30% HP-β-CD, M4N 10 mg/mL, 90°) | Dissolution After Heating at X ° C. (50% HP-β-CD in saline, M4N 10 mg/mL, 90°) | Dissolution After Heating at X ° C. (50% HP-β-CD, 1.25% PVP (w/v), M4N 1 mg/mL, 90°) | Dissolution After Heating at X ° C. (50% HP-β-CD, M4N 1 mg/mL, 90°) | Dissolution After Heating at X ° C. (50% HP-β-CD, M4N 10 mg/mL, 90°)
greater than 7 days: remained in solution after cooling (M4N 1 mg/mL and 10 mg/mL in 40% HP-β-CD)
Y at 60°: Dissolution After Heating at X ° C. (5% HP-β-CD, 12.5% PEG 300 (v/v), M4N 3.13 mg/mL, 60°) | Dissolution After Heating at X ° C. (6.7% HP-β-CD, 16.7% PEG 300 (v/v), M4N 4.17 mg/mL, 60°) | Dissolution After Heating at X ° C. (10% HP-β-CD, 25% PEG 300 (v/v), M4N 6.25 mg/mL, 60°) | Dissolution After Heating at X ° C. (10% HP-β-CD, 77% PEG 300 (v/v), M4N 19.3 mg/mL, 60°) | Dissolution After Heating at X ° C. (12.5% HP-β-CD, 50% PEG 300 (v/v), M4N 12.5 mg/mL, 60°) | Dissolution After Heating at X ° C. (13% HP-β-CD, 67% PEG 300 (v/v), M4N 16.7 mg/mL, 60°) | Dissolution After Heating at X ° C. (15% HP-β-CD, 50% PEG 300 (v/v), M4N 12.5 mg/mL, 60°) | Dissolution After Heating at X ° C. (20% HP-β-CD, 50% PEG 300 (v/v), M4N 12.5 mg/mL, 60°) | Dissolution After Heating at X ° C. (23% HP-β-CD, 43 PEG 300 (v/v), M4N 12.9 mg/mL, 60°) | Dissolution After Heating at X ° C. (27% HP-β-CD, 33% PEG 300 (v/v), M4N 13.3 mg/mL, 60°) | Dissolution After Heating at X ° C. (30% HP-β-CD, 25% PEG 400 (v/v), M4N 12.5 mg/mL, 60°) | Dissolution After Heating at X ° C. (32% HP-β-CD, 20% PEG 400 (v/v), M4N 10 mg/mL, 60°)
